Key:
[1] = system: A-375; assay: Cytotoxicity against human A-375 cells assessed as cell viability at 10 uM incubated for 48 hrs (reference value: 100 %); format: functional; settings: read-out: Activity
[2] = system: A-375; assay: Cytotoxicity against human A-375 cells assessed as cell viability at 5 uM incubated for 48 hrs (reference value: 100 %); format: functional; settings: read-out: Activity
[3] = system: MCF7; assay: Cytotoxicity against human MCF7 cells assessed as reduction in cell viability incubated for 48 hrs; format: functional, cell-based; settings: MCF7, 48 h
[4] = system: MDA-MB-231; assay: Cytotoxicity against human MDA-MB-231 cells assessed as reduction in cell viability incubated for 48 hrs; format: functional, cell-based; settings: MDA-MB-231, 48 h
[5] = system: HT-1080; assay: Cytotoxicity against human HT-1080 cells assessed as reduction in cell viability incubated for 48 hrs; format: functional, cell-based; settings: HT-1080, 48 h
[6] = system: A549; assay: Cytotoxicity against human A549 cells assessed as reduction in cell viability incubated for 48 hrs; format: functional, cell-based; settings: A549, 48 h
[7] = biological target: T1, Caspase-3/Caspase-7 (Homo sapiens) (UniProt P42574+P55210); assay: Induction of caspase 3/7 proteolytic activity in human HT-1080 cells assessed as induction of apoptosis by measuring viable cells at 5 uM incubated for 24 hrs by flow cytometry analysis (reference value: 91.39 %); format: cell-based; settings: filed as activator
T1 sequence (P42574 whole entry, looked up): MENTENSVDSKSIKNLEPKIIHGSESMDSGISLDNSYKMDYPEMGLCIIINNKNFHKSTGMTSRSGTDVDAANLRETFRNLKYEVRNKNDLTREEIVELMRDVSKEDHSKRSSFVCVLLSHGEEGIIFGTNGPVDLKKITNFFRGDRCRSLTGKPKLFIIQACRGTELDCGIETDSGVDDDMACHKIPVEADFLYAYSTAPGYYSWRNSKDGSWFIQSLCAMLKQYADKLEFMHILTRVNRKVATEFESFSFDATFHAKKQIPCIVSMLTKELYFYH
T1 sequence (P55210 whole entry, looked up): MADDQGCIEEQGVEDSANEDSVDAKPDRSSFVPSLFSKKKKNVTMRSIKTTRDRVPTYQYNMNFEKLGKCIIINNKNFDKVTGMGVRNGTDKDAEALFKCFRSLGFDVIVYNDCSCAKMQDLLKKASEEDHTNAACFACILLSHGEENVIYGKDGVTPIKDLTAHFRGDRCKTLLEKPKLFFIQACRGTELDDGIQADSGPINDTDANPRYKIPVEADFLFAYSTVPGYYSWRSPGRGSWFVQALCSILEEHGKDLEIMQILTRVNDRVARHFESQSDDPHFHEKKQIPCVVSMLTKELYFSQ

[8] = system: A549; assay: Induction of apoptosis in human A549 cells assessed as early apoptotic cells at 5 uM incubated for 24 hrs by AnnexinV-FITC/7-AAD double staining based analysis (reference value: 6.07 %); format: functional
[9] = system: HT-1080; assay: Induction of cell cycle arrest in human HT-1080 cells assessed as G0/G1 phase at 5 uM incubated for 24 hrs by flow cytometry analysis (reference value: 63 %); format: functional
[10] = system: A549; assay: Induction of cell cycle arrest in human A549 cells assessed as S phase at 5 uM incubated for 24 hrs by flow cytometry analysis (reference value: 9.6 %); format: functional
[11] = system: A549; assay: Induction of cell cycle arrest in human A549 cells assessed as G2/M phase at 5 uM incubated for 24 hrs by flow cytometry analysis (reference value: 11.6 %); format: functional
[12] = biological target: T1, Caspase-3/Caspase-7 (Homo sapiens); assay: Induction of caspase 3/7 proteolytic activity in human A549 cells assessed as induction of apoptosis by measuring dead cells at 5 uM incubated for 24 hrs by flow cytometry analysis (reference value: 2.90 %); format: cell-based
[13] = biological target: T1, Caspase-3/Caspase-7 (Homo sapiens); assay: Induction of caspase 3/7 proteolytic activity in human A549 cells assessed as induction of apoptosis by measuring apoptotic cells at 5 uM incubated for 24 hrs by flow cytometry analysis (reference value: 2.54 %); format: cell-based
[14] = system: A549; assay: Induction of apoptosis in human A549 cells at 5 uM incubated for 24 hrs by AnnexinV-FITC/7-AAD double staining based analysis (reference value: 9.08%); format: functional
[15] = biological target: T1, Caspase-3/Caspase-7 (Homo sapiens); assay: Induction of caspase 3/7 proteolytic activity in human A549 cells assessed as induction of apoptosis by measuring viable cells at 5 uM incubated for 24 hrs by flow cytometry analysis (reference value: 88.91 %); format: cell-based; settings: filed as activator
[16] = system: HT-1080; assay: Induction of mitochondrial membrane potential dysfunction in human HT-1080 cells assessed as viable cells at 5 uM incubated for 24 hrs by flow cytometry analysis (reference value: 90.10 %); format: functional; settings: read-out: Activity
[17] = system: A549; assay: Induction of mitochondrial membrane potential dysfunction in human A549 cells assessed as depolarized dead cells at 5 uM incubated for 24 hrs by flow cytometry analysis (reference value: 0.39 %); format: functional
[18] = system: A549; assay: Induction of apoptosis in human A549 cells assessed as late apoptotic cells at 5 uM incubated for 24 hrs by AnnexinV-FITC/7-AAD double staining based analysis (reference value: 3.01 %); format: functional
[19] = system: A549; assay: Induction of cell cycle arrest in human A549 cells assessed as G0/G1 phase at 5 uM incubated for 24 hrs by flow cytometry analysis (reference value: 73.5 %); format: functional
[20] = system: HT-1080; assay: Induction of apoptosis in human HT-1080 cells assessed as early apoptotic cells at 5 uM incubated for 24 hrs by AnnexinV-FITC/7-AAD double staining based analysis relative to control; format: functional
[21] = Induction of caspase 3/7 proteolytic activity in human A549 cells assessed as induction of apoptosis at 5 uM incubated for 24 hrs by flow cytometry analysis relative to control; format: functional
[22] = biological target: T1, Caspase-3/Caspase-7 (Homo sapiens); assay: Induction of caspase 3/7 proteolytic activity in human HT-1080 cells assessed as induction of apoptosis by measuring apoptotic cells at 5 uM incubated for 24 hrs by flow cytometry analysis (reference value: 1.48 %); format: cell-based
[23] = system: HT-1080; assay: Induction of apoptosis in human HT-1080 cells at 5 uM incubated for 24 hrs by AnnexinV-FITC/7-AAD double staining based analysis relative to control; format: functional
[24] = system: A549; assay: Induction of apoptosis in human A549 cells assessed as early apoptotic cells at 5 uM incubated for 24 hrs by AnnexinV-FITC/7-AAD double staining based analysis relative to control; format: functional
[25] = system: HT-1080; assay: Induction of apoptosis in human HT-1080 cells assessed as late apoptotic cells at 5 uM incubated for 24 hrs by AnnexinV-FITC/7-AAD double staining based analysis (reference value: 0.12 %); format: functional
[26] = system: HT-1080; assay: Induction of apoptosis in human HT-1080 cells assessed as viable cells at 5 uM incubated for 24 hrs by AnnexinV-FITC/7-AAD double staining based analysis (reference value: 97.92 %); format: functional; settings: read-out: Activity
[27] = system: HT-1080; assay: Induction of cell cycle arrest in human HT-1080 cells assessed as S phase at 5 uM incubated for 24 hrs by flow cytometry analysis (reference value: 10.3 %); format: functional
[28] = biological target: T1, Caspase-3/Caspase-7 (Homo sapiens); assay: Induction of caspase 3/7 proteolytic activity in human HT-1080 cells assessed as induction of apoptosis by measuring dead cells at 5 uM incubated for 24 hrs by flow cytometry analysis (reference value: 2.15 %); format: cell-based
[29] = system: A549; assay: Induction of mitochondrial membrane potential dysfunction in human A549 cells assessed as dead cells at 5 uM incubated for 24 hrs by flow cytometry analysis (reference value: 9.92 %); format: functional
[30] = system: HT-1080; assay: Induction of mitochondrial membrane potential dysfunction in human HT-1080 cells assessed as depolarized live cells at 5 uM incubated for 24 hrs by flow cytometry analysis (reference value: 2.28 %); format: functional
[31] = system: HT-1080; assay: Induction of apoptosis in human HT-1080 cells assessed as necrotic cells at 5 uM incubated for 24 hrs by AnnexinV-FITC/7-AAD double staining based analysis (reference value: 0.73 %); format: functional
[32] = system: HT-1080; assay: Induction of apoptosis in human HT-1080 cells at 5 uM incubated for 24 hrs by AnnexinV-FITC/7-AAD double staining based analysis (reference value: 1.34%); format: functional
[33] = system: HT-1080; assay: Induction of mitochondrial membrane potential dysfunction in human HT-1080 cells assessed as dead cells at 5 uM incubated for 24 hrs by flow cytometry analysis (reference value: 7.61 %); format: functional
[34] = system: A549; assay: Induction of apoptosis in human A549 cells assessed as viable cells at 5 uM incubated for 24 hrs by AnnexinV-FITC/7-AAD double staining based analysis (reference value: 89.88 %); format: functional; settings: read-out: Activity
[35] = biological target: T1, Caspase-3/Caspase-7 (Homo sapiens); assay: Induction of caspase 3/7 proteolytic activity in human HT-1080 cells assessed as induction of apoptosis by measuring apoptotic/dead cells at 5 uM incubated for 24 hrs by flow cytometry analysis (reference value: 4.97 %); format: cell-based
[36] = biological target: T1, Caspase-3/Caspase-7 (Homo sapiens); assay: Induction of caspase 3/7 proteolytic activity in human A549 cells assessed as induction of apoptosis by measuring apoptotic/dead cells at 5 uM incubated for 24 hrs by flow cytometry analysis (reference value: 5.65 %); format: cell-based
[37] = system: A549; assay: Induction of apoptosis in human A549 cells assessed as necrotic cells at 5 uM incubated for 24 hrs by AnnexinV-FITC/7-AAD double staining based analysis (reference value: 1.04 %); format: functional
[38] = system: HT-1080; assay: Induction of apoptosis in human HT-1080 cells assessed as early apoptotic cells at 5 uM incubated for 24 hrs by AnnexinV-FITC/7-AAD double staining based analysis (reference value: 1.22 %); format: functional
[39] = system: HT-1080; assay: Induction of cell cycle arrest in human HT-1080 cells assessed as G2/M phase at 5 uM incubated for 24 hrs by flow cytometry analysis (reference value: 25.6 %); format: functional
[40] = system: A549; assay: Induction of apoptosis in human A549 cells at 5 uM incubated for 24 hrs by AnnexinV-FITC/7-AAD double staining based analysis relative to control; format: functional
[41] = system: HT-1080; assay: Induction of mitochondrial membrane potential dysfunction in human HT-1080 cells assessed as depolarized dead cells at 5 uM incubated for 24 hrs by flow cytometry analysis (reference value: 0.0 %); format: functional
[42] = system: A549; assay: Induction of mitochondrial membrane potential dysfunction in human A549 cells assessed as depolarized live cells at 5 uM incubated for 24 hrs by flow cytometry analysis (reference value: 1.16 %); format: functional
[43] = Induction of caspase 3/7 proteolytic activity in human HT-1080 cells assessed as induction of apoptosis at 5 uM incubated for 24 hrs by flow cytometry analysis relative to control; format: functional
[44] = system: A549; assay: Induction of mitochondrial membrane potential dysfunction in human A549 cells assessed as viable cells at 5 uM incubated for 24 hrs by flow cytometry analysis (reference value: 86.64 to 88.54 %); format: functional; settings: read-out: Activity

Structure (SMILES): O=c1[nH]c(=O)n(Cc2ccc(-c3noc(-c4ccccc4)n3)cc2)cc1F
- viability at 10 µM [1]: 30%
- viability at 5 µM [2]: 56%

Structure (SMILES): O=c1ccn(Cc2ccc(-c3noc(-c4ccc(-c5ccccc5)cc4)n3)cc2)c(=O)[nH]1
- viability at 10 µM [1]: 82%
- viability at 5 µM [2]: 85%

Structure (SMILES): COc1ccc(-c2ccc(-c3nc(-c4ccc(Cn5ncc(=O)[nH]c5=O)cc4)no3)cc2)cc1
- viability at 10 µM [1]: 44%
- viability at 5 µM [2]: 76%

Structure (SMILES): COc1ccc(-c2nc(-c3ccc(Cn4cc(F)c(=O)[nH]c4=O)cc3)no2)cc1
- viability at 10 µM [1]: 82%
- viability at 5 µM [2]: 50%

Structure (SMILES): O=c1ccn(Cc2ccc(-c3noc(-c4ccccc4)n3)cc2)c(=O)[nH]1
- viability at 10 µM [1]: 72%
- viability at 5 µM [2]: 76%

Structure (SMILES): COc1cccc2c1C(=O)c1c(O)c3c(c(O)c1C2=O)C[C@@](O)(C(=O)CO)C[C@@H]3O[C@H]1C[C@H](N)[C@H](O)[C@H](C)O1 [DOXORUBICIN]
- IC50 [3]: 1830 nM
- IC50 [4]: 3410 nM
- IC50 [5]: 930 nM
- IC50 [6]: 2670 nM

Structure (SMILES): COc1ccc(-c2nc(-c3ccc(Cn4ncc(=O)[nH]c4=O)cc3)no2)cc1
- viability at 10 µM [1]: 55%
- viability at 5 µM [2]: 53%

Structure (SMILES): COc1ccc(-c2ccc(-c3nc(-c4ccc(Cn5cc(F)c(=O)[nH]c5=O)cc4)no3)cc2)cc1
- IC50 [3]: 890 nM
- IC50 [4]: 6520 nM
- viability at 10 µM [1]: 23%
- IC50 [5]: 980 nM
- IC50 [6]: 4020 nM
- viability at 5 µM [2]: 29%

Structure (SMILES): N/C(=N\O)c1ccc(Cn2ncc(=O)[nH]c2=O)cc1
- viability at 10 µM [1]: 94%
- viability at 5 µM [2]: 100%

Structure (SMILES): COc1ccc(-c2nc(-c3ccc(Cn4ccc(=O)[nH]c4=O)cc3)no2)cc1
- viability at 10 µM [1]: 55%
- viability at 5 µM [2]: 59%

Structure (SMILES): O=c1cnn(Cc2ccc(-c3noc(-c4ccccc4)n3)cc2)c(=O)[nH]1
- viability at 10 µM [1]: 62%
- viability at 5 µM [2]: 100%

Structure (SMILES): O=c1[nH]c(=O)n(Cc2ccc(-c3noc(-c4ccc(-c5ccccc5)cc4)n3)cc2)cc1F
- Activity [7]: 68.6%
- Activity [8]: 9.29%
- Activity [9]: 59.9%
- Activity [10]: 12%
- Activity [11]: 11.5%
- IC50 [3]: 1190 nM
- Activity [12]: 6.64%
- Activity [13]: 3.25%
- Activity [14]: 29.01%
- IC50 [4]: 8370 nM
- Activity [15]: 64.3%
- viability at 5 µM [16]: 78.7%
- Activity [17]: 0.63%
- Activity [18]: 14.72%
- Activity [19]: 71.8%
- viability at 10 µM [1]: 17%
- fold change (FC) [20]: 3.5
- fold change (FC) [21]: 3
- Activity [22]: 2.87%
- fold change (FC) [23]: 10
- IC50 [5]: 880 nM
- fold change (FC) [24]: 1.5
- Activity [25]: 9.56%
- viability at 5 µM [26]: 84.7%
- Activity [27]: 13.9%
- Activity [28]: 9.15%
- Activity [29]: 20.29%
- Activity [30]: 3.61%
- IC50 [6]: 3120 nM
- Activity [31]: 1.49%
- Activity [32]: 13.81%
- Activity [33]: 16.96%
- viability at 5 µM [34]: 72.7%
- Activity [35]: 19.4%
- viability at 5 µM [2]: 29%
- Activity [36]: 25.8%
- Activity [37]: 3.26%
- Activity [38]: 4.25%
- Activity [39]: 24.1%
- fold change (FC) [40]: 3
- Activity [41]: 0%
- Activity [42]: 1.03%
- fold change (FC) [43]: 3
- viability at 5 µM [44]: 78%

Reference: ChEMBL document CHEMBL4673234, “Design, synthesis, biological evaluation and molecular docking of new uracil analogs-1,2,4-oxadiazole hybrids as potential anticancer agents” (Bioorg Med Chem Lett, 2020)
